The target in this assay is T1, cPLA2 (Homo sapiens, UniProt P47712).
T1 sequence (P47712 1-749): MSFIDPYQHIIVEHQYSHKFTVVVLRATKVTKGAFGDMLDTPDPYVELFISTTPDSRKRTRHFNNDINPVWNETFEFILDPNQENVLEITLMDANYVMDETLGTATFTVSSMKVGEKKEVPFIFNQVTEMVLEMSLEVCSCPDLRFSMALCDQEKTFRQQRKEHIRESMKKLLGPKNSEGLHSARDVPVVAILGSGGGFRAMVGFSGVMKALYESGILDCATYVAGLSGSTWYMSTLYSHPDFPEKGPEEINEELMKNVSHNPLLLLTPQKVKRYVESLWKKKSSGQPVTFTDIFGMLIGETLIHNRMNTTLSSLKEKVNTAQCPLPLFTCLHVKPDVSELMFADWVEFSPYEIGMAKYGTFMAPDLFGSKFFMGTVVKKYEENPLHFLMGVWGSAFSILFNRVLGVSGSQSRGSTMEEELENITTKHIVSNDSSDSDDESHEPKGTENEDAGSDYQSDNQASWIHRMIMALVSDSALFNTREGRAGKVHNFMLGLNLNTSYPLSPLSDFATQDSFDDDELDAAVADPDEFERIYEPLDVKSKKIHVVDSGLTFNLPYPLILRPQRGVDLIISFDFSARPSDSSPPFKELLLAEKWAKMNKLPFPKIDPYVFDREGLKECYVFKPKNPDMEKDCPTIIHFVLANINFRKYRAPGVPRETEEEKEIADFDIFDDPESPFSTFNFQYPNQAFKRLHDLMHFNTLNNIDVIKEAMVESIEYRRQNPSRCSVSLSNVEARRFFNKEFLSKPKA
In words: Coumarin Assay (cPLA2 inhibition). The format is biochemical. To be noted: for inhibition at 12 µM: CONCENTRATION 12 micromolar. An outline of the steps:
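Percent inhibition at the stated concentration, from the rate of 460 nm emission rise (360 nm excitation) per minute. Reaction started by adding 4 μg enzyme to compound and 60 μM 7-hydroxycoumarinyl 6-heptenoate in Hepes buffer pH 7.5 with 1 mM EDTA.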

Where two headings read alike, the source gives them in different places.

Consider `O=C(Nc1cccc(C(=O)O)c1)C(=O)c1cn(Cc2ccc(Cc3ccccc3)cc2)c2ccc(OCc3ccccc3)cc12` [Example 71, 3-({2-[1-(4-benzylbenzyl)-5-(benzyloxy)-1H-indol-3-yl]-2-oxoacetyl}amino)benzoic acid], for which, where the note is “CONCENTRATION 1.5 micromolar, read-out: PERCENT INHIBITION @”, the inhibition at 1.5 µM came out at 50%. Moreover, the inhibition at 3.5 µM (CONCENTRATION 3.5 micromolar, read-out: PERCENT INHIBITION @) was 50%. The inhibition at 3.8 µM (CONCENTRATION 3.8 micromolar, read-out: PERCENT INHIBITION @) was 50%. The inhibition at 6 µM (CONCENTRATION 6 micromolar, read-out: PERCENT INHIBITION @) is 69%.

With `COc1cc(C(=O)O)ccc1Cc1cn(C(c2ccccc2)c2ccccc2)c2ccc(S(C)(=O)=O)cc12` [Example 18, 4-{[l-benzhydryl-5-(methylsulfonyl)-1H-indol-3-yl]methyl}-3-methoxybenzoic acid], the “PERCENT INHIBITION @” value turned out to be 50% (CONCENTRATION 1.2 micromolar), 50% (CONCENTRATION 1.3 micromolar), 50% (CONCENTRATION 1.9 micromolar) and 50% (CONCENTRATION 2 micromolar).

For the molecule `O=C(Nc1cc(C(=O)O)cc(C(=O)O)c1)C(=O)c1cn(Cc2ccc(C(F)(F)F)cc2C(F)(F)F)c2ccc(OCc3ccccc3)cc12` [Example 72, 5-[(2-{5-(benzyloxy)-1-[2,4-bis(trifluoromethyl)benzyl]-1H-indol-3-yl}-2-oxoacetyl)amino]isophthalic acid], for the setting “CONCENTRATION 12.5 micromolar, read-out: PERCENT INHIBITION @”, the inhibition at 12.5 µM was found to be 50%.

Turning to `O=C(O)Cc1cn(Cc2ccccc2)c2ccc(-c3ccccc3)cc12` [Example 81, 2-(1-benzyl-5-phenyl-1H-indol-3-yl)acetic acid], the inhibition at 70 µM (CONCENTRATION 70 micromolar, read-out: PERCENT INHIBITION @) was 50%. Besides, the inhibition at 100 µM (CONCENTRATION 100 micromolar, read-out: PERCENT INHIBITION @) was determined as 46%.

Take `Cc1c(C(=O)O)c2cc(OCc3ccccc3)ccc2n1Cc1ccccc1` [Example 111, 1-benzyl-5-(benzyloxy)-2-methyl-1H-indole-3-carboxylic acid]: the “PERCENT INHIBITION @” value (CONCENTRATION 50 micromolar) is 15%. The inhibition at 50 µM (CONCENTRATION 50 micromolar, read-out: PERCENT INHIBITION @) worked out at 16%.

Regarding `CS(=O)(=O)Cc1c(CCOc2ccc(C(=O)O)cc2)c2cc(Cl)ccc2n1C(c1ccccc1)c1ccccc1` [Example 154, 4-(2-{1-benzhydryl-5-chloro-2-[(methylsulfonyl)methyl]-1H-indol-3-yl}ethoxy)benzoic acid], under “Conc 5.5 uM, read-out: % Inhibition”, the inhibition at 5.5 µM stood at 50%.

As for `O=C(O)Cc1cn(CC2CC2)c2ccc(-c3cccs3)cc12` [Example 78, 2-[1-(cyclopropylmethyl)-5-(2-thienyl)-1H-indol-3-yl]acetic acid], where the note is “CONCENTRATION 80 micromolar, read-out: PERCENT INHIBITION @”, the inhibition at 80 µM amounted to 50%. Besides, the inhibition at 110 µM (CONCENTRATION 110 micromolar, read-out: PERCENT INHIBITION @) turned out to be 50%.

Regarding `O=C(Cc1cn(Cc2ccc(C(F)(F)F)cc2C(F)(F)F)c2ccc(OCc3ccccc3)cc12)Nc1cccc(C(=O)O)c1` [Example 106, 3-[(2-{5-(benzyloxy)-1-[2,4-bis(trifluoromethyl)benzyl]-1H-indol-3-yl}acetyl)amino]benzoic acid], the inhibition at 7 µM (CONCENTRATION 7 micromolar, read-out: PERCENT INHIBITION @) stood at 50%. The inhibition at 12 µM (read-out: PERCENT INHIBITION @) came to 50%.

On to `Cc1c(C(=O)Nc2cc(C(=O)O)cc(C(=O)O)c2)c2cc(OCc3ccccc3)ccc2n1Cc1ccc2ccccc2c1` [Example 110, 5-({[5-(benzyloxy)-2-methyl-1-(2-naphthylmethyl)-1H-indol-3-yl]carbonyl}amino)isophthalic acid], for which the inhibition at 46 µM (CONCENTRATION 46 micromolar, read-out: PERCENT INHIBITION @) is 50%. In addition, for the setting “CONCENTRATION 47 micromolar, read-out: PERCENT INHIBITION @”, the inhibition at 47 µM was 50%.

With `O=C(O)C1CC1Cc1cn(C(c2ccc(O)cc2)c2ccc(O)cc2)c2cc(Cl)ccc12` (stereo not drawn) [Example 129, 2-({1-[bis(4-hydroxyphenyl)methyl]-6-chloro-1H-indol-3-yl}methyl)cyclopropanecarboxylic acid], for the setting “CONCENTRATION 1.1 micromolar, read-out: PERCENT INHIBITION @”, the inhibition at 1.1 µM was found to be 50%.

Take `Cc1c(CCOc2ccc(CCC(=O)O)cc2)c2cc(Cl)ccc2n1C(c1ccccc1)c1ccccc1` [Example 171, 3-{4-[2-(1-Benzhydryl-5-chloro-2-methyl-1H-indol-3-yl)ethoxy]phenyl}propanoic acid (10)]: the “% Inhibition” value (Conc 0.4 uM) is on record as 50%.

For `O=C(O)Cc1cn(CC2CC2)c2ccc(-c3cccc(C(F)(F)F)c3)cc12` [Example 79, 2-{1-(cyclopropylmethyl)-5-[3-(trifluoromethyl)phenyl]-1H-indol-3-yl}acetic acid], where the note is “CONCENTRATION 60 micromolar, read-out: PERCENT INHIBITION @”, the inhibition at 60 µM was 50%. Moreover, the inhibition at 65 µM (CONCENTRATION 65 micromolar, read-out: PERCENT INHIBITION @) came to 50%.

`COCc1c(CCOc2ccc(C(=O)O)cc2)c2cc(Cl)ccc2n1C(c1ccccc1)c1ccccc1` [Example 152, 4-{2-[1-benzhydryl-5-chloro-2-(methoxymethyl)-1H-indol-3-yl]ethoxy}benzoic acid] yielded an inhibition at 3.3 µM (Conc 3.3 uM) of 50%.

As to `COc1cc(C(=O)NS(=O)(=O)c2ccccc2C)ccc1Cc1cn(C(c2ccccc2)c2ccccc2)c2ccc(NC(=O)C3CCCC3)cc12` [Example 43, N-{1-benzhydryl-3-[2-methoxy-4-({[(2-methylphenyl)sulfonyl]amino}carbonyl)benzyl]-1H-indol-5-yl}cyclopentanecarboxamide], where the note is “read-out: PERCENT INHIBITION @”, the inhibition at 12 µM came out at 50%. In addition, the inhibition at 14 µM (CONCENTRATION 14 micromolar, read-out: PERCENT INHIBITION @) worked out at 50%.

In the case of `O=C(O)c1ccc(S(=O)(=O)CCc2c(CO)n(C(c3ccccc3)c3ccccc3)c3ccc(Cl)cc23)cc1` [Example 157, 4-({2-[1-benzhydryl-5-chloro-2-(hydroxymethyl)-1H-indol-3-yl]ethyl}sulfonyl)benzoic acid], under “Conc 3.8 uM, read-out: % Inhibition”, the inhibition at 3.8 µM came to 50%.

With `O=C(O)c1ccc(OCCc2c(COCc3ccccn3)n(C(c3ccccc3)c3ccccc3)c3ccc(Cl)cc23)cc1` [Example 158, 4-(2-{1-benzhydryl-5-chloro-2-[(2-pyridinylmethoxy)methyl]-1H-indol-3-yl}ethoxy)benzoic acid], the inhibition at 1.7 µM (Conc 1.7 uM) is 50%.

Turning to `O=Cc1c(CCOc2ccc(C(=O)O)cc2)c2cc(Cl)ccc2n1C(c1ccccc1)c1ccccc1` [Example 150, 4-[2-(1-benzhydryl-5-chloro-2-formyl-1H-indol-3-yl)ethoxy]benzoic acid], under “Conc 2.5 uM, read-out: % Inhibition”, the inhibition at 2.5 µM worked out at 50%.

As for `COc1cc(C(=O)NS(=O)(=O)c2ccccc2C)ccc1Cc1cn(C2CCCC2)c2ccc(NC(=O)OC3CCCC3)cc12` [Example 25, Cyclopentyl N-{1-cyclopentyl-3-[2-methoxy-4-({[(2-methylphenyl)sulfonyl]amino}carbonyl)benzyl]-1H-indol-5-yl}carbamate], the inhibition at 13 µM (CONCENTRATION 13 micromolar, read-out: PERCENT INHIBITION @) was 50%. In addition, the inhibition at 17 µM (CONCENTRATION 17 micromolar, read-out: PERCENT INHIBITION @) is 50%.

Turning to `O=C(O)C1CC1Cc1cn(C(c2ccccc2)c2ccccc2)c2cc(Cl)c(Cl)cc12` (stereo not drawn) [Example 128, 2-[(1-benzhydryl-5,6-dichloro-1H-indol-3-yl)methyl]cyclopropanecarboxylic acid], the inhibition at 0.9 µM (CONCENTRATION 0.9 micromolar, read-out: PERCENT INHIBITION @) was 50%.

For `COc1cc(C(=O)NS(=O)(=O)c2sc(C)nc2C)ccc1Cc1cn(C(c2ccccc2)c2ccccc2)c2ccc(NC(=O)OC3CCCC3)cc12` [Example 32, cyclopentyl N-{1-benzhydryl-3-[4-({[(2,4-dimethyl-1,3-thiazol-5-yl)sulfonyl]amino}carbonyl)-2-methoxybenzyl]-1H-indol-5-yl}carbamate], the inhibition at 4 µM (CONCENTRATION 4 micromolar, read-out: PERCENT INHIBITION @) was 50%. Further, the inhibition at 4.4 µM (CONCENTRATION 4.4 micromolar, read-out: PERCENT INHIBITION @) came out at 50%.

Take `O=C(O)c1ccc(OCCc2c(COCc3ccc(F)cc3)n(C(c3ccccc3)c3ccccc3)c3ccc(Cl)cc23)cc1` [Example 161, 4-[2-(1-benzhydryl-5-chloro-2-{[(4-fluorobenzyl)oxy]methyl}-1H-indol-3-yl)ethoxy]benzoic acid]: the inhibition at 1.8 µM (Conc 1.8 uM, read-out: % Inhibition) turned out to be 50%.

For the origin of these results see patent publication US6500853B1, “Inhibitors of phospholipase enzymes” (Genetics Institute, LLC, priority 1998, dated 2002).
